Patent US11814376B2, “Hepatitis b core protein modulators” (Assembly Biosciences, Inc., priority 2015, dated 2023)

Tests used:
[1] = test system: HBV viral load in AD38 cells; assay: Viral load production in AD38 cells, quantitative PCR of the core sequence in supernatant; assay type: cell-based; conditions: 10 μM compound, 6 days at 37° C., supernatant qPCR, relative to DMSO control; for activity at 10 µM: Hepatitis B virus, 144 h, read-out: AD38 Viral Load (%) (VL with cmpd/VL in DMSO control) at 10 μM
Protocol: (§1) Example 2: Assay Measuring Activity of Compounds on Viral Production in and on Viability of AD38 Cells
(§2) AD38 cells were then re-suspended with 10 mL of Treatment Medium and counted. Wells of a collagen coated 96-well NUNC microtiter plate were seeded at 50,000/well in 180 μL of Treatment Medium, and 20 μL of in treatment media with either 10% DMSO (Control) or a 10× solution of compound in 10% DMSO was added. Plates were incubated for 6 days at 37° C.
Viral load production was assayed by quantitative PCR of the core sequence. […] The PCR mixture was incubated at 45° C. for 5 minutes, then 95° C. for 10 min, followed by 40 cycles of 10 seconds at 95° C. and 20 seconds at 60° C. Viral load was quantitated against known standards by using ViiA™ 7 Software. Viral load in the supernatant from wells with treated cells were compared against viral load in supernatant from DMSO control wells (>3 per plate).

AD38 cells = assay: Viability of AD38 cells (Promega CellTiter-Glo); assay type: cell-based; conditions: 10 μM compound, 6 days, CellTiter-Glo luminescence normalized to DMSO control (100%)
Protocol: as §1, §2
At the end of compound treatment period cell viability was assessed using a Promega CellTiter-Glo protocol. All supernatant was removed the previously treated 96-well microtiter plate, and 50 μL Tetracycline-free treatment medium (DMEM/F12 (1:1), 1× Pen/step (cat #: 30-002-CL, Mediatech, Inc), with 2% FBS, Tet-system approved (cat #: 631106, Clontech), and 1% DMSO was added back to each well. Another 50 μL of CellTiter-Glo reagent solution (Promega, G7573) was then added at room temperature and the contents mixed for 2 minutes on an orbital shaker to induce cell lysis. This was followed by incubation at room temperature for 10 minutes to stabilize the luminescent signal. The luminescence was recorded for 0.2 seconds per well on a Tecan multimode plate reader (Infinite M1000 pro). The luminescent signal from each well was normalized against that of untreated (DMSO) control wells. All results were reported percent viability (with controls being 100%).

Row | Structure (SMILES) | activity at 10 µM [1] [%] | AD38 Viability Normalized Result (cmpd/DMSO %) at 10 μM (AD38 cells) [%] | AD38 Viral Load (%) (VL with cmpd/VL in DMSO control) at 10 μM [1]
1 | O=C(NCc1cnc(-c2ccc(O)cc2)s1)c1ccc2c(c1)NC(=O)c1ccccc1S2(=O)=O [compound 1595, N-((2-(4-hydroxyphenyl)thiazol-5-yl)methyl)-11-oxo-10, 11-dihydrodibenzo [b, f] [1, 4] thiazepine-8-carboxamide 5,5-dioxide] | 0.3 | 109 | –
2 | O=C(NCc1cnc(-c2ccc(O[C@H]3CCNC3)cc2)s1)c1ccc2c(c1)NC(=O)c1ccccc1S2(=O)=O.O=C(O)C(F)(F)F [compound 11028, (S)-11-oxo-N-((2-(4-(pyrrolidin-3-yloxy)phenyl)thiazol-5-yl)methyl)-10, 11-dihydrodibenzo [b, f] [1, 4] thiazepine-8-carboxamide 5,5-dioxide TFA salt] | 5.2 | 92 | –
3 | O=C(NCc1cnc(-c2ccc(O)c(Cl)c2)s1)c1ccc2c(c1)NC(=O)c1ccccc1O2 [compound 1702] | 5.3 | 102 | –
4 | COc1ccc(Cc2ncc(CNC(=O)c3ccc4c(c3)NC(=O)c3ccccc3S4(=O)=O)s2)cc1 [1823-A, N-((2-(4-methoxybenzyl)thiazol-5-yl)methyl)-11-oxo-10, 11-dihydrodibenzo [b, f] [1, 4] thiazepine-8-carboxamide 5,5-dioxide] | 5.8 | 92 | –
5 | O=C(NCc1cnc(C(F)(F)F)s1)c1cc2c(cc1C(F)(F)F)S(=O)(=O)c1ccccc1C(=O)N2 [compound 1936] | 13.5 | 94 | –
6 | Cc1cc2c(cc1C(=O)NCc1cnc(-c3ccc(C#N)cc3)s1)NC(=O)c1ccccc1S2(=O)=O [compound 1911] | 0.4 | 111 | –
7 | Cl.O=C(NCc1cnc(-c2ccc(OC[C@H]3CCNC3)cc2)s1)c1ccc2c(c1)NC(=O)c1ccccc1S2(=O)=O [compound 11139, (S)-11-oxo-N-((2-(4-(pyrrolidin-3-ylmethoxy)phenyl)thiazol-5-yl)methyl)-10, 11-dihydrodibenzo [b, f] [1, 4] thiazepine-8-carboxamide 5,5-dioxide hydrochloride] | 5.5 | 104 | –
8 | Cl.O=C(NCc1cnc(-c2ccc(OC[C@@H]3CCCN3)cc2)s1)c1ccc2c(c1)NC(=O)c1ccccc1S2(=O)=O [compound 11029, (S)-11-oxo-N-((2-(4-(pyrrolidin-2-ylmethoxy)phenyl)thiazol-5-yl)methyl)-10, 11-dihydrodibenzo [b, f] [1, 4] thiazepine-8-carboxamide 5,5-dioxide hydrochloride] | 5.3 | 105 | –
9 | O=C(O)c1ccc(-c2ncc(CNC(=O)c3ccc4c(c3)NC(=O)c3ccccc3O4)s2)cc1 [compound 1612, 4-(5-((11-oxo-10, 11-dihydrodibenzo [b, f] [1, 4]oxazepine-8-carboxamido)methyl)thiazol-2-yl) benzoic acid] | 6.9 | 105 | –
10 | CC1(C)CCN(c2ncc(CNC(=O)c3ccc4c(c3)NC(=O)c3ccccc3S4(=O)=O)s2)C1 [compound 1981] | 0.2 | 105 | –
11 | CN(C)CCOc1ccc(-c2ncc(CNC(=O)c3ccc4c(c3)NC(=O)c3ccccc3S4)s2)cc1 [compound 1608] | 12.4 | 98 | –
12 | Cl.NCc1cnc(-c2ncc(CNC(=O)c3ccc4c(c3)NC(=O)c3ccccc3S4)s2)s1 [compound 1735, N-((5′-(aminomethyl)-[2, 2′-bithiazol]-5-yl)methyl)-11-oxo-10, 11-dihydrodibenzo [b, f] [1, 4] thiazepine-8-carboxamide hydrochloride] | 3.1 | 92 | –
13 | CC(C)(C)OC(=O)NC1CCN(Cc2ncc(CNC(=O)c3ccc4c(c3)NC(=O)c3ccccc3S4(=O)=O)s2)CC1 [1885-A] | 4.5 | 107 | –
14 | Cc1cc2c(cc1C(=O)NCc1cncs1)NC(=O)c1ccccc1S2 [compound 1496] | 9.6 | 57 | –
15 | Cl.NCCCOc1ccc(-c2ncc(CNC(=O)c3ccc4c(c3)NC(=O)c3ccccc3S4(=O)=O)s2)cc1 [compound 1988, N-((2-(4-(3-aminopropoxy)phenyl)thiazol-5-yl)methyl)-11-oxo-10, 11-dihydrodibenzo [b, f] [1, 4] thiazepine-8-carboxamide 5,5-dioxide hydrochloride] | 1.3 | 103 | –
16 | Cc1c(C(=O)NCc2cnc(-c3ccc(C(N)=O)cc3)s2)ccc2c1NC(=O)c1ccccc1S2(=O)=O [compound 1878, N-((2-(4-carbamoylphenyl)thiazol-5-yl)methyl)-9-methyl-11-oxo-10, 11-dihydrodibenzo [b, f] [1, 4] thiazepine-8-carboxamide 5,5-dioxide] | 1 | 103 | –
17 | COc1ccc(-c2ncc(CNC(=O)c3ccc4c(c3)NC(=O)c3ccccc3S4(=O)=O)s2)cc1 [compound 1596] | 3.8 | 25 | –
18 | CC(C)(C)OC(=O)N1CCN(c2ccc(-c3ncc(CNC(=O)c4ccc5c(c4)NC(=O)c4ccccc4S5(=O)=O)s3)cn2)CC1 [11019-A, tert-butyl 4-(5-(5-((5,5-dioxido-11-oxo-10, 11-dihydrodibenzo [b, f] [1, 4]thiazepine-8-carboxamido)methyl)thiazol-2-yl)pyridin-2-yl) piperazine-1-carboxylate] | – | 95 | 1.0
19 | Cc1c(C(=O)NCc2cnc(-n3cc(C(F)(F)F)cn3)s2)ccc2c1NC(=O)c1ccccc1S2(=O)=O [compound 11149] | 0.2 | 100 | –
20 | Nc1ncc(-c2ncc(CNC(=O)c3ccc4c(c3)NC(=O)c3ccccc3O4)s2)cn1 [compound 1710] | 39.9 | 96 | –
21 | CNC(=O)c1ccc(-c2ncc(CNC(=O)c3ccc4c(c3)NC(=O)c3ccccc3S4(=O)=O)s2)cc1 [compound 1943] | 1.9 | 98 | –
22 | CN(C)CCOc1ncc(CN(C)C(=O)c2ccc3c(c2)NC(=O)c2ccccc2S3(=O)=O)s1 [compound 1660, N-((2-(2-(dimethylamino)ethoxy)thiazol-5-yl)methyl)-N-methyl-11-oxo-10, 11-dihydrodibenzo [b, f] [1, 4] thiazepine-8-carboxamide 5,5-dioxide] | 86.8 | 102 | –
23 | CN(C)CCOc1ncc(CN(C)C(=O)c2ccc3c(c2)NC(=O)c2ccccc2O3)s1 [compound 1686, N-((2-(2-(dimethylamino)ethoxy)thiazol-5-yl)methyl)-N-methyl-11-oxo-10, 11-dihydrodibenzo [b, f] [1, 4] oxazepine-8-carboxamide] | 58.4 | 102 | –
24 | NS(=O)(=O)c1ccc(-c2ncc(CNC(=O)c3ccc4c(c3)NC(=O)c3ccccc3S4(=O)=O)s2)cc1 [compound 1856] | 1.3 | 96 | –
25 | O=C(NCc1cnc(-c2ccc3[nH]ncc3c2)s1)c1ccc2c(c1)NC(=O)c1ccccc1O2 [compound 1737] | 7.2 | 112 | –
26 | Cc1ncc(CNC(=O)c2ccc3c(c2)NC(=O)c2cc(Cl)ccc2S3)s1 [compound 1541] | 3.7 | 98 | –
27 | CN(CCCOc1ccc(-c2ncc(CNC(=O)c3ccc4c(c3)NC(=O)c3ccccc3S4(=O)=O)s2)cc1)CC(F)(F)F [compound 1994] | 0.9 | 92 | –
28 | N#Cc1ccc(-c2ncc(CNC(=O)c3ccc4c(c3Cl)NC(=O)c3ccccc3S4(=O)=O)s2)c(F)c1 [compound 11083] | 0.8 | 62 | –
29 | CC1c2ccc(C(=O)NCc3cncs3)cc2NC(=O)c2ccccc21 (stereo not drawn) [compound 1546] | 2.2 | 97 | –
30 | O=C(NCc1cnc(-c2ccc(OCCCN3CCCCC3)cc2)s1)c1ccc2c(c1)NC(=O)c1ccccc1O2 [compound 11160, 11-oxo-N-((2-(4-(3-(piperidin-1-yl)propoxy)phenyl)thiazol-5-yl)methyl)-10, 11-dihydrodibenzo [b, f] [1, 4] oxazepine-8-carboxamide] | 17.7 | 104 | –
